# ChEMBL document CHEMBL1909046, “DrugMatrix in vitro pharmacology data”
# Tests used:
# Carbonic anhydrase 2 = Carbonic anhydrase 2 (Homo sapiens, UniProt P00918); experiment: DRUGMATRIX: Carbonic Anhydrase II enzyme inhibition (substrate: 4-Nitrophenyl acetate (4-NPA)); assay type: tissue-based, Erythrocyte; conditions: erythrocyte; Not Active = under 50% inhibition at 10 µM
# [1] = molecular target: Platelet-activating factor receptor (Homo sapiens, UniProt P25105); assay type: tissue-based; further: in other assays of this panel Not Active means under 50% inhibition at 10 µM
# Chain of Platelet-activating factor receptor (P25105 whole entry): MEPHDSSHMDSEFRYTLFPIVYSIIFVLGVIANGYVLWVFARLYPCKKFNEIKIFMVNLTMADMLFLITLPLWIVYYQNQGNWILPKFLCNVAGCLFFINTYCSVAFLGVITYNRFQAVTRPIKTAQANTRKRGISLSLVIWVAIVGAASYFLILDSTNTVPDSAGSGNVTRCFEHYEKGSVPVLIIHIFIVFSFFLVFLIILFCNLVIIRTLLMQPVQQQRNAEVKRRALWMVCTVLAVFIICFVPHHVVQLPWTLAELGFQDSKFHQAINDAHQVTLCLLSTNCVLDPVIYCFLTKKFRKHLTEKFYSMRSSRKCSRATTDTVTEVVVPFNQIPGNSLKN
# Thromboxane-A synthase = molecular target: T1, Thromboxane-A synthase (Homo sapiens, UniProt P24557); experiment: biochemical; assay type: tissue-based, Platelet;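 further: enzyme inhibition assay with PGH2 supplied as substrate; in other assays of this panel Not Active means under 50% inhibition at 10 µM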
# T1 sequence (P24557 whole entry): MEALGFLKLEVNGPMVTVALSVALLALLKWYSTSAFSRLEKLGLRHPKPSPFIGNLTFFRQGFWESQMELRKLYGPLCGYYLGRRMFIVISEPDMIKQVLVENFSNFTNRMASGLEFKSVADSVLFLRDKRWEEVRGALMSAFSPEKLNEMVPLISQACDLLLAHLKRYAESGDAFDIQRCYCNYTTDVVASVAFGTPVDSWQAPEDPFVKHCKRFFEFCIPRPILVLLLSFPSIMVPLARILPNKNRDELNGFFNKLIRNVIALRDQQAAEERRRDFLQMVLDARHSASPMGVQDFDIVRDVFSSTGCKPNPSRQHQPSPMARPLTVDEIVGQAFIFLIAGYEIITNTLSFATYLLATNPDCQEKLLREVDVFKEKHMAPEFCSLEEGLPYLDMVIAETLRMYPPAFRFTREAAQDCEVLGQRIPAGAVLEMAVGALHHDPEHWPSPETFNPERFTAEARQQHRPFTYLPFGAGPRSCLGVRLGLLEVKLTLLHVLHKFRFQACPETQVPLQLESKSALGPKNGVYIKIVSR
# [2] = molecular target: T2, Nitric oxide synthase, inducible (Mus musculus, UniProt P29477); design: species or system Escherichia coli;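 further: inhibition of iNOS enzyme activity measured with L-arginine as substrate; in other assays of this panel Not Active means under 50% inhibition at 10 µM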
# T2 sequence (P29477 whole entry): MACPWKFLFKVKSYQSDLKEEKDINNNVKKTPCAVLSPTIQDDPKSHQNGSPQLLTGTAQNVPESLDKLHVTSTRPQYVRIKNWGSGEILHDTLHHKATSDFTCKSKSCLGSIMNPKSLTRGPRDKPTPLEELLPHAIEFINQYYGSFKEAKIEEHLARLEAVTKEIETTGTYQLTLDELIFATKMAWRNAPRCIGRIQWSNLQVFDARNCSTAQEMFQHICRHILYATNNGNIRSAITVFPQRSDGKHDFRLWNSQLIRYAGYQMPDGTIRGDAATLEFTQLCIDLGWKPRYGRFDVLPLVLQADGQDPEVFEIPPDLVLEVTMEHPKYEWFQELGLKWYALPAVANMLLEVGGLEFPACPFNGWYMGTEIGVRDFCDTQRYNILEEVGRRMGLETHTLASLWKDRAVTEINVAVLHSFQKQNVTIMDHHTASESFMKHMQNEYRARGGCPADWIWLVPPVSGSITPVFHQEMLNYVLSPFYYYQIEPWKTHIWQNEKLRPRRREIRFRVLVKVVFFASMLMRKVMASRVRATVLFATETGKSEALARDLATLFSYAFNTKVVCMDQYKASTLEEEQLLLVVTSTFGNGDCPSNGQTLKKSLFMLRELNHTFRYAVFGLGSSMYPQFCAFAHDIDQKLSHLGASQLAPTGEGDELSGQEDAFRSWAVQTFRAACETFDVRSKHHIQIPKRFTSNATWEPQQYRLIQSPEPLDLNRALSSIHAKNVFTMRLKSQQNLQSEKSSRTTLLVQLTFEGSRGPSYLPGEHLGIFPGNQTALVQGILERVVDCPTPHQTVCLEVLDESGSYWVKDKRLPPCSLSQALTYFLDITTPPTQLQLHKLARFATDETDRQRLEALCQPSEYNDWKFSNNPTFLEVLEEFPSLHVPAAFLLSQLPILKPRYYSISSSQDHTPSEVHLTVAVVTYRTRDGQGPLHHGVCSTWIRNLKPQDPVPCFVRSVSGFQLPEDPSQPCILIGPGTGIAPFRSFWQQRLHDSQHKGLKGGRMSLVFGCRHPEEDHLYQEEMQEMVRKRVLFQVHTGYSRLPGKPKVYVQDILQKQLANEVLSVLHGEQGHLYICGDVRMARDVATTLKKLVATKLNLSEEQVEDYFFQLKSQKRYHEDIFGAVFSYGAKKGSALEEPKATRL
# Caspase-1 = molecular target: T3, Caspase-1 (Homo sapiens, UniProt P29466); design: species or system Escherichia coli;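 further: Caspase-1 enzyme inhibition assay with a peptide substrate; in other assays of this panel Not Active means under 50% inhibition at 10 µM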
# T3 sequence (P29466 whole entry): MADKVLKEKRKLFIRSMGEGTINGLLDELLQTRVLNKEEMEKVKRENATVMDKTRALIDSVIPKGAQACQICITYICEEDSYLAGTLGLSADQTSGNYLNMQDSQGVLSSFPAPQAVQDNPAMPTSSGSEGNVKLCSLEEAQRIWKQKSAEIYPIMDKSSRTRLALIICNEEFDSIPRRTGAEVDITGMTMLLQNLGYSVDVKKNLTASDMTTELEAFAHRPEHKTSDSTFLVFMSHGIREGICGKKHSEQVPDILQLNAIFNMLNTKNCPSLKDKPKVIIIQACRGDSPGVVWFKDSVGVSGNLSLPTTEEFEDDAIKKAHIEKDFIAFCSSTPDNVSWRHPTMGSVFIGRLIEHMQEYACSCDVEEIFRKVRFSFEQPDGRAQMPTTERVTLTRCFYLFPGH
# [3] = molecular target: Mitogen-activated protein kinase 1 (Homo sapiens, UniProt P28482); experiment: DRUGMATRIX: Protein Serine/Threonine Kinase, ERK2 enzyme inhibition (substrate: Myelin Basic Protein); design: species or system Escherichia coli; conditions: Not Active = under 50% inhibition at 10 µM
# Chain of Mitogen-activated protein kinase 1 (P28482 whole entry): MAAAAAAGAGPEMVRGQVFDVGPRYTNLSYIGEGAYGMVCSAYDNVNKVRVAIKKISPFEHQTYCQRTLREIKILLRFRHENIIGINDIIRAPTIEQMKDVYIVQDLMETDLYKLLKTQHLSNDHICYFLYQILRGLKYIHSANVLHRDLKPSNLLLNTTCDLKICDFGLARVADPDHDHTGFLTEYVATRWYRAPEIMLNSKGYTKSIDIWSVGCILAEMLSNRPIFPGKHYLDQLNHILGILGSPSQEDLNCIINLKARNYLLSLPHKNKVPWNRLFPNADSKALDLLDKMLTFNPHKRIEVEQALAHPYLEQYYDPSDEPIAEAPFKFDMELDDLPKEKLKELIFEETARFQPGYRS
# [4] = DRUGMATRIX: Tumor Necrosis Factor (TNF), Non-Selective radioligand binding (ligand: [125I] TNF-alpha); assay type: cell membranes, Membrane; conditions: u-937; Not Active = under 50% inhibition at 10 µM
# [5] = DRUGMATRIX: Glutamate, NMDA, Agonism radioligand binding (ligand: [3H] CGP-39653); assay type: cell membranes, Rattus norvegicus, Wistar, Cerebral cortex, Membrane; conditions: Not Active = under 50% inhibition at 10 µM
# Cytochrome P450 2C19 = Cytochrome P450 2C19 (Homo sapiens, UniProt P33261); conditions: bti-tn-5b1-4; further: in other assays of this panel Not Active means under 50% inhibition at 10 µM
# Chain of Cytochrome P450 2C19 (P33261 whole entry): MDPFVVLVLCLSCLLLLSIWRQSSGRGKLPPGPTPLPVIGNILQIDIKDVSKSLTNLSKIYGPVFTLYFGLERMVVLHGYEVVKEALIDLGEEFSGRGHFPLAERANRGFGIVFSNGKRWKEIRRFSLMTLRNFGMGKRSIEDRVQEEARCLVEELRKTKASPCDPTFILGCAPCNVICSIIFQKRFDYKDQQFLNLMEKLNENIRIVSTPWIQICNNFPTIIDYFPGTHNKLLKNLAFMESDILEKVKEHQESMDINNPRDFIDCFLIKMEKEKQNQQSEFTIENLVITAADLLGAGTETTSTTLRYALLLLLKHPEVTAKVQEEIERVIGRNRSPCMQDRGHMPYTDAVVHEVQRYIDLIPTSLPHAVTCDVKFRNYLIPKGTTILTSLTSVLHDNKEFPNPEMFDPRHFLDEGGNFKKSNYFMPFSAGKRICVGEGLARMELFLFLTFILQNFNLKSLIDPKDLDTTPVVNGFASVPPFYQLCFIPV
SMILES,IC50 (Carbonic anhydrase 2),IC50 [1],IC50 (Thromboxane-A synthase; platelet),IC50 [2],IC50 (Caspase-1),IC50 [3],IC50 [4],Ki [4],IC50 [5],Ki [5],IC50 (Cytochrome P450 2C19),Ki (Cytochrome P450 2C19),IC50 (Thromboxane-A synthase; read-out: IC50)
C=CCN1CC[C@]23c4c5ccc(O)c4O[C@H]2C(=O)CC[C@@]3(O)[C@H]1C5 [NALOXONE],Not Active,Not Active,Not Active,Not Active,Not Active,Not Active,,,,,,,
COCCOC(=O)C1=C(C)NC(C)=C(C(=O)OC(C)C)C1c1cccc([N+](=O)[O-])c1 (stereo unspecified) [NIMODIPINE],Not Active,Not Active,Not Active,Not Active,Not Active,Not Active,Not Active,Not Active,Not Active,Not Active,,,
CC(C)NCC(O)COc1cccc2ccccc12 (stereo unspecified) [PROPRANOLOL],Not Active,Not Active,Not Active,Not Active,Not Active,Not Active,,,,,Not Active,Not Active,
COCCCOc1ccnc(C[S+]([O-])c2nc3ccccc3[nH]2)c1C (stereo unspecified) [RABEPRAZOLE],Not Active,Not Active,Not Active,Not Active,Not Active,Not Active,Not Active,Not Active,Not Active,Not Active,Not Active,Not Active,
O=C(c1ccc(OCCN2CCCCC2)cc1)c1c(-c2ccc(O)cc2)sc2cc(O)ccc12 [RALOXIFENE],Not Active,Not Active,Not Active,Not Active,Not Active,Not Active,Not Active,Not Active,Not Active,Not Active,,,
CC(C)c1nc(CN(C)C(=O)N[C@H](C(=O)N[C@@H](Cc2ccccc2)C[C@H](O)[C@H](Cc2ccccc2)NC(=O)OCc2cncs2)C(C)C)cs1 [RITONAVIR],Not Active,Not Active,,Not Active,Not Active,Not Active,Not Active,Not Active,Not Active,Not Active,,,
Cc1onc(-c2ccccc2)c1-c1ccc(S(N)(=O)=O)cc1 [VALDECOXIB],,Not Active,Not Active,Not Active,Not Active,Not Active,Not Active,Not Active,Not Active,Not Active,Not Active,Not Active,
CC[C@]1(O)C[C@@H]2CN(CCc3c([nH]c4ccccc34)[C@@](C(=O)OC)(c3cc4c(cc3OC)N(C)[C@H]3[C@@](O)(C(=O)OC)[C@H](OC(C)=O)[C@]5(CC)C=CCN6CC[C@]43[C@@H]65)C2)C1 [VINBLASTINE],Not Active,Not Active,,Not Active,Not Active,Not Active,Not Active,Not Active,Not Active,Not Active,,,1870 nM
C[C@@H](N)[C@H]1CC[C@H](C(=O)Nc2ccncc2)CC1 [Y-27632],Not Active,Not Active,Not Active,Not Active,Not Active,Not Active,Not Active,Not Active,Not Active,Not Active,,,
